According to the NIST ThermoML archive (doi:10.1016/j.jct.2006.05.008):

Assay: molar heat capacity at constant pressure; wn = mass fraction of the nth substance listed
Settings: Small (less than 1 g) adiabatic calorimetry

CCCCn1cc[n+](C)c1.[Br-] [1-butyl-3-methylimidazolium bromide] + O
Settings | molar heat capacity at constant pressure [J/K/mol]
152.96 K, 101.3 kPa, Glass, w2 = 0.00482 | 151.04
155.53 K, 101.3 kPa, Glass, w2 = 0.00482 | 152.59
158.09 K, 101.3 kPa, Glass, w2 = 0.00482 | 154.17
160.66 K, 101.3 kPa, Glass, w2 = 0.00482 | 155.77
163.24 K, 101.3 kPa, Glass, w2 = 0.00482 | 157.38
165.81 K, 101.3 kPa, Glass, w2 = 0.00482 | 158.96
168.39 K, 101.3 kPa, Glass, w2 = 0.00482 | 160.57
170.97 K, 101.3 kPa, Glass, w2 = 0.00482 | 162.11
173.55 K, 101.3 kPa, Glass, w2 = 0.00482 | 163.78
176.13 K, 101.3 kPa, Glass, w2 = 0.00482 | 165.35
178.71 K, 101.3 kPa, Glass, w2 = 0.00482 | 167.03
181.3 K, 101.3 kPa, Glass, w2 = 0.00482 | 168.7
183.89 K, 101.3 kPa, Glass, w2 = 0.00482 | 170.41
186.48 K, 101.3 kPa, Glass, w2 = 0.00482 | 172.04
189.06 K, 101.3 kPa, Glass, w2 = 0.00482 | 173.78
191.65 K, 101.3 kPa, Glass, w2 = 0.00482 | 175.6
194.25 K, 101.3 kPa, Glass, w2 = 0.00482 | 177.44
196.84 K, 101.3 kPa, Glass, w2 = 0.00482 | 179.31
199.44 K, 101.3 kPa, Glass, w2 = 0.00482 | 181.34
201.78 K, 101.3 kPa, Glass, w2 = 0.00482 | 183.39
203.87 K, 101.3 kPa, Glass, w2 = 0.00482 | 185.23
205.95 K, 101.3 kPa, Glass, w2 = 0.00482 | 187.63
208.05 K, 101.3 kPa, Glass, w2 = 0.00482 | 190.57
209.63 K, 101 kPa, Liquid, w2 = 0.0495 | 190.63
210.13 K, 101.3 kPa, Glass, w2 = 0.00482 | 194.11
211.86 K, 101 kPa, Liquid, w2 = 0.0495 | 190.98
212.18 K, 101.3 kPa, Glass, w2 = 0.00482 | 199.24
213.95 K, 101 kPa, Liquid, w2 = 0.0495 | 191.32
214.19 K, 101.3 kPa, Glass, w2 = 0.00482 | 209.18
216.04 K, 101 kPa, Liquid, w2 = 0.0495 | 191.7
216.1 K, 101.3 kPa, Glass, w2 = 0.00482 | 229.46
218.13 K, 101 kPa, Liquid, w2 = 0.0495 | 191.97

Crystal
Settings | molar heat capacity at constant pressure [J/K/mol]
153.47 K, w2 = 0.00482 | 140.32
154 K, w2 = 0.0495 | 102.07
154.55 K, w2 = 0.0169 | 127.32
154.86 K, w2 = 0.0051 | 140.76
156.05 K, w2 = 0.00482 | 141.71
156.62 K, w2 = 0.0169 | 128.46
156.86 K, w2 = 0.0495 | 103.54
157.46 K, w2 = 0.0051 | 142.19
158.64 K, w2 = 0.00482 | 143.05
158.69 K, w2 = 0.0169 | 129.54
159.72 K, w2 = 0.0495 | 105.03
160.06 K, w2 = 0.0051 | 143.6
160.76 K, w2 = 0.0169 | 130.58
161.22 K, w2 = 0.00482 | 144.52
162.58 K, w2 = 0.0495 | 107.12
162.67 K, w2 = 0.0051 | 145.04
162.83 K, w2 = 0.0169 | 131.81
163.81 K, w2 = 0.00482 | 145.98
164.91 K, w2 = 0.0169 | 133.35
165.35 K, w2 = 0.0051 | 146.89
165.42 K, w2 = 0.0495 | 110.43
166.4 K, w2 = 0.00482 | 147.42
166.98 K, w2 = 0.0169 | 135.28
167.95 K, w2 = 0.0051 | 148.6
168.2 K, w2 = 0.0495 | 119.37
168.99 K, w2 = 0.00482 | 148.99
169.05 K, w2 = 0.0169 | 138.58
170.54 K, w2 = 0.0051 | 150.98
170.84 K, w2 = 0.0495 | 133.87
171.1 K, w2 = 0.0169 | 143.34
171.58 K, w2 = 0.00482 | 150.69
173.12 K, w2 = 0.0051 | 153.72
173.15 K, w2 = 0.0169 | 146.3
173.43 K, w2 = 0.0495 | 137.89
174.17 K, w2 = 0.00482 | 152.56
175.22 K, w2 = 0.0169 | 148.17
175.7 K, w2 = 0.0051 | 155.58
176.02 K, w2 = 0.0495 | 137.25
176.76 K, w2 = 0.00482 | 154.52
177.3 K, w2 = 0.0169 | 149.6
178.27 K, w2 = 0.0051 | 157.05
178.63 K, w2 = 0.0495 | 136.83
179.35 K, w2 = 0.00482 | 156.32
179.39 K, w2 = 0.0169 | 150.75
180.85 K, w2 = 0.0051 | 158.5
181.26 K, w2 = 0.0495 | 136.85
181.47 K, w2 = 0.0169 | 151.73
181.94 K, w2 = 0.00482 | 158.09
182.13 K, w2 = 0.0495 | 137.03
183.43 K, w2 = 0.0051 | 159.93
183.55 K, w2 = 0.0169 | 152.69
183.89 K, w2 = 0.0495 | 137.25
184.55 K, w2 = 0.00482 | 159.97
184.8 K, w2 = 0.0495 | 137.33
185.63 K, w2 = 0.0169 | 153.62
186 K, w2 = 0.0051 | 161.23
186.52 K, w2 = 0.0495 | 137.88
187.15 K, w2 = 0.00482 | 161.48
187.43 K, w2 = 0.0495 | 137.82
187.72 K, w2 = 0.0169 | 154.64
188.57 K, w2 = 0.0051 | 162.67
189.16 K, w2 = 0.0495 | 138.51
189.75 K, w2 = 0.00482 | 163.1
189.81 K, w2 = 0.0169 | 155.65
190.07 K, w2 = 0.0495 | 138.44
191.13 K, w2 = 0.0051 | 164.05
191.82 K, w2 = 0.0495 | 139.23
191.89 K, w2 = 0.0169 | 156.63
192.35 K, w2 = 0.00482 | 164.66
192.72 K, w2 = 0.0495 | 139.22
193.7 K, w2 = 0.0051 | 165.5
193.98 K, w2 = 0.0169 | 157.56
194.48 K, w2 = 0.0495 | 139.88
194.95 K, w2 = 0.00482 | 166.1
195.38 K, w2 = 0.0495 | 139.99
196.08 K, w2 = 0.0169 | 158.61
196.26 K, w2 = 0.0051 | 166.89
197.16 K, w2 = 0.0495 | 140.43
197.55 K, w2 = 0.00482 | 167.55
198.05 K, w2 = 0.0495 | 140.75
198.17 K, w2 = 0.0169 | 159.59
198.82 K, w2 = 0.0051 | 168.3
200.15 K, w2 = 0.00482 | 169
200.26 K, w2 = 0.0169 | 160.53
200.73 K, w2 = 0.0495 | 141.5
201.38 K, w2 = 0.0051 | 169.66
202.36 K, w2 = 0.0169 | 161.49
202.75 K, w2 = 0.00482 | 170.67
203.43 K, w2 = 0.0495 | 142.32
203.93 K, w2 = 0.0051 | 171.24
204.46 K, w2 = 0.0169 | 162.5
205.36 K, w2 = 0.00482 | 172.16
206.48 K, w2 = 0.0051 | 172.9
206.55 K, w2 = 0.0169 | 163.54
207.97 K, w2 = 0.00482 | 173.71
208.05 K, w2 = 0.0495 | 144.92
208.65 K, w2 = 0.0169 | 164.5
209.03 K, w2 = 0.0051 | 175.02
210.59 K, w2 = 0.00482 | 175.21
210.75 K, w2 = 0.0495 | 151.13
210.77 K, w2 = 0.0169 | 165.47
211.56 K, w2 = 0.0051 | 176.7
212.87 K, w2 = 0.0169 | 166.55
213.21 K, w2 = 0.00482 | 176.73
213.38 K, w2 = 0.0495 | 150.25
214.1 K, w2 = 0.0051 | 177.3
214.97 K, w2 = 0.0169 | 167.69
215.83 K, w2 = 0.00482 | 178.25
215.99 K, w2 = 0.0495 | 154.67
216.64 K, w2 = 0.0051 | 178.89
216.82 K, w2 = 0.00482 | 178.65
217.07 K, w2 = 0.0169 | 169.05
217.64 K, w2 = 0.0169 | 168.8
